Laboratory results published in ChEMBL document CHEMBL4351028, “Benzoyl indoles with metabolic stability as reversal agents for ABCG2-mediated multidrug resistance” (Eur J Med Chem, 2019).
Each block holds one compound with its values, some of them ahead of it. The source made the active and inactive calls. The calls are words filed in the database; no cut-off is given here.

Experiments:
[1] = target: T1, Broad substrate specificity ATP-binding cassette transporter ABCG2 (Homo sapiens, UniProt Q9UNQ0); assay: (§1) Reversal of ABCG2-mediated multidrug resistance in human NCI-H460/MX20 cells assessed as potentiation of mitoxantrone-induced cytotoxicity by measuring inhibition of cell proliferation at 1 uM pretreated for 2 hrs followed by mitoxantrone addition and measured after 44 hrs by MTT assay (reference value: 24 +/- 3%); format: cell-based
T1 sequence (Q9UNQ0 whole entry): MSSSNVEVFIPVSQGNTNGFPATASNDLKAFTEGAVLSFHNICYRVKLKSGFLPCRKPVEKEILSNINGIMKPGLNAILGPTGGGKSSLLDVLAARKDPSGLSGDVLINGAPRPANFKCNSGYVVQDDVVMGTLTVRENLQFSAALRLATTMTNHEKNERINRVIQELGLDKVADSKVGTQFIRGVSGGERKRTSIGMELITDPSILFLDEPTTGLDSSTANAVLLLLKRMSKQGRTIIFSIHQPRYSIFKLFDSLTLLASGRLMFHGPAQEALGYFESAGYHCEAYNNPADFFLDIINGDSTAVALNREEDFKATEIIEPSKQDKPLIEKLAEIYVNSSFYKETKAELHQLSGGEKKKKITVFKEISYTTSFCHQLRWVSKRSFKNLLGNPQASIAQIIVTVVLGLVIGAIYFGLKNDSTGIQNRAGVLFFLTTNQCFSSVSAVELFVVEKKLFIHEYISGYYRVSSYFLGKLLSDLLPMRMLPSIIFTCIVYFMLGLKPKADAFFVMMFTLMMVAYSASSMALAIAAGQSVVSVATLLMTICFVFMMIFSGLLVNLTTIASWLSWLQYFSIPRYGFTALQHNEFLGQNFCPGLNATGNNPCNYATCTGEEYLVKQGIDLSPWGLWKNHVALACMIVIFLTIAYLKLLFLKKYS

[2] = Cytotoxicity against human NCI-H460/MX20 cells assessed as inhibition of cell viability incubated for 2 hrs by MTT assay; format: cell-based; details: NCI-H460/MX20, 2 h
[3] = Cytotoxicity against human NCI-H460/MX20 cells assessed as concentration that causes inhibition of cell viability by <=20% incubated for 24 hrs by MTT assay; format: cell-based
[4] = test system: NCI-H460; assay: Cytotoxicity against human NCI-H460 cells assessed as inhibition of cell viability incubated for 2 hrs by MTT assay; format: cell-based; details: NCI-H460, 2 h, read-out: IC50
[5] = test system: NCI-H460; assay: Cytotoxicity against human NCI-H460 cells assessed as concentration that causes inhibition of cell viability by <=20% incubated for 24 hrs by MTT assay; format: cell-based; details: nci-h460, 24 h
[6] = Cytotoxicity against human NCI-H460 cells assessed as inhibition of cell viability at 5 to 25 uM incubated for 2 hrs by MTT assay relative to control; format: cell-based; details: read-out: INH
[7] = test system: HEK293; assay: Reversal of ABCG2 482-T7 mutant (unknown origin) expressed in HEK293 cells-mediated multidrug resistance assessed as potentiation of mitoxantrone-induced cytotoxicity at 2.5 to 5 uM pretreated for 2 hrs followed by mitoxantrone addition and measured after 44 hrs by MTT assay; format: cell-based; details: Homo sapiens
[8] = test system: HEK293; assay: Reversal of ABCG2 482-G2 mutant (unknown origin) expressed in HEK293 cells-mediated multidrug resistance assessed as potentiation of mitoxantrone-induced cytotoxicity at 2.5 to 5 uM pretreated for 2 hrs followed by mitoxantrone addition and measured after 44 hrs by MTT assay; format: cell-based; details: Homo sapiens
[9] = Cytotoxicity against HEK293 cells harbouring ABCG2-482-T7 mutant assessed as inhibition of cell viability at 5 to 25 uM incubated for 2 hrs by MTT assay relative to control; format: ADME, cell-based; details: human, read-out: INH
[10] = target: T1, Broad substrate specificity ATP-binding cassette transporter ABCG2; assay: Reversal of ABCG2-mediated multidrug resistance in human NCI-H460/MX20 cells assessed as cisplatin-induced cytotoxicity at 5 uM pretreated with compound for 2 hrs followed by cisplatin challenge for 44 hrs by MTT assay; format: cell-based
[11] = target: T1, Broad substrate specificity ATP-binding cassette transporter ABCG2; assay: Reversal of ABCG2-mediated multidrug resistance in human S1-M1-80 cells assessed as potentiation of doxorubicin-induced cytotoxicity at 5 uM pretreated with compound for 2 hrs followed by doxorubicin challenge for 44 hrs by MTT assay; format: cell-based
[12] = target: T1, Broad substrate specificity ATP-binding cassette transporter ABCG2; assay: Reversal of ABCG2 (unknown origin) expressed in HEK293 cells-mediated multidrug resistance assessed as potentiation of mitoxantrone-induced cytotoxicity at 2.5 to 5 uM pretreated for 2 hrs followed by mitoxantrone addition and measured after 44 hrs by MTT assay; format: cell-based; details: hek293, 44 h
[13] = target: T1, Broad substrate specificity ATP-binding cassette transporter ABCG2; assay: Reversal of ABCG2-mediated multidrug resistance in human S1-M1-80 cells assessed as potentiation of mitoxantrone-induced cytotoxicity at 5 uM pretreated with compound for 2 hrs followed by mitoxantrone challenge for 44 hrs by MTT assay; format: cell-based
[14] = Cytotoxicity against human NCI-H460/MX20 cells assessed as inhibition of cell viability at 5 to 25 uM incubated for 2 hrs by MTT assay relative to control; format: cell-based; details: read-out: INH
[15] = Metabolic stability in human liver microsomes assessed as compound remaining at 100 uM incubated for 1 hr by HPLC analysis; format: ADME, Microsome; details: read-out: Stability
[16] = Cytotoxicity against human S1 cells assessed as inhibition of cell viability at 5 to 25 uM incubated for 2 hrs by MTT assay relative to control; format: cell-based; details: read-out: INH
[17] = target: T1, Broad substrate specificity ATP-binding cassette transporter ABCG2; assay: Inhibition of ABCG2-mediated mitoxantrone efflux in human NCI-H460/MX20 cells assessed as increase in accumulation of [3H]MX at 5 uM incubated for 2 hrs followed by [3H]MX addition further incubated for 2 hrs by liquid scintillation counter relative to control; format: cell-based
[18] = Cytotoxicity against HEK293 cells expressing wild type ABCG2-482-R2 assessed as inhibition of cell viability at 5 to 25 uM incubated for 2 hrs by MTT assay relative to control; format: ADME, cell-based; details: human, read-out: INH
[19] = Cytotoxicity against human S1-M1-80 cells assessed as inhibition of cell viability at 5 to 25 uM incubated for 2 hrs by MTT assay relative to control; format: cell-based; details: read-out: INH
[20] = target: T1, Broad substrate specificity ATP-binding cassette transporter ABCG2; assay: as §1, with “10” for “1”; format: cell-based
[21] = target: T1, Broad substrate specificity ATP-binding cassette transporter ABCG2; assay: Competitive substrate activity at ABCG2 (unknown origin) expressed in High Five insect cell vesicle membrane assessed as stimulation of ATPase activity by PREDEASY ATPase assay
[22] = species: Homo sapiens; assay: Effect on ABCG2 internalization in human NCI-H460/MX20 cells at 5 uM incubated for 72 hrs by immunofluorescence analysis; format: functional, cell-based
[23] = Cytotoxicity against HEK293 cells harbouring ABCG2-482-G2 mutant assessed as inhibition of cell viability at 5 to 25 uM incubated for 2 hrs by MTT assay relative to control; format: ADME, cell-based; details: human, read-out: INH
[24] = target: T2, ABCG2 (Homo sapiens, UniProt Q9UNQ0); assay: Competitive substrate activity at ABCG2 (unknown origin) expressed in High Five insect cell vesicle membrane assessed as stimulation of ATPase activity at 0.75 uM by PREDEASY ATPase assay relative to control; details: High Five insect cell vesicle membranes expressing ABCG2
T2 sequence (Q9UNQ0 whole entry): T1 sequence (Q9UNQ0 whole entry)

[25] = target: T1, Broad substrate specificity ATP-binding cassette transporter ABCG2; assay: Competitive substrate activity at ABCG2 (unknown origin) expressed in High Five insect cell vesicle membrane assessed as stimulation of ATPase activity up to 40 uM by PREDEASY ATPase assay relative to control
[26] = target: T1, Broad substrate specificity ATP-binding cassette transporter ABCG2; assay: Reversal of ABCG2-mediated multidrug resistance in human NCI-H460/MX20 cells assessed as potentiation of mitoxantrone-induced cytotoxicity by measuring inhibition of cell proliferation pretreated for 2 hrs followed by mitoxantrone addition and measured after 44 hrs by MTT assay; format: cell-based
[27] = species: Homo sapiens; assay: Effect on ABCG2 expression in human NCI-H460/MX20 cells at 5 uM incubated up to 72 hrs by Western blot analysis; format: functional, cell-based
[28] = target: T1, Broad substrate specificity ATP-binding cassette transporter ABCG2; assay: Reversal of ABCG2-mediated multidrug resistance in human NCI-H460/MX20 cells assessed as potentiation of mitoxantrone-induced cytotoxicity at 2.5 to 5 uM pretreated with compound for 2 hrs followed by mitoxantrone challenge for 44 hrs by MTT assay; format: cell-based
[29] = Cytotoxicity against HEK293 cells transfected with pcDNA3.1 assessed as inhibition of cell viability at 5 to 25 uM incubated for 2 by MTT assay relative to control; format: cell-based; details: human, read-out: INH

Structure (SMILES): COc1cc(C(=O)c2c[nH]c3cccc(OC)c23)cc(OC)c1OC
inhibition (INH) [1]: Active
IC50 [2]: > 100 µM
Activity [3]: 1 µM
IC50 [4]: > 100 µM
Activity [5]: 1 µM

Structure (SMILES): COc1ccc2[nH]cc(C(=O)c3ccccc3OC)c2c1
inhibition (INH) [1]: Active
IC50 [2]: 61.9 µM
Activity [3]: 1 µM
IC50 [4]: 46.2 µM
Activity [5]: 1 µM

remaining at 1 h, 100 µM [15]: 78%
Activity [21]: Dose-dependent effect
Emax at 0.75 µM [24]: 50%
fold change (FC) [25]: 2.03
Structure (SMILES): COc1ccc(C(=O)c2c[nH]c3ccc(OC)cc23)cc1
cytotoxicity at 2 h, up to 25 µM [6]: < 20%
Activity [7]: Active
Activity [8]: Active
cytotoxicity at 2 h, up to 25 µM [9]: < 20%
Activity [10]: Not Active
Activity [11]: Active
Activity [12]: Active
Activity [13]: Active
cytotoxicity at 2 h, up to 25 µM [14]: < 20%
IC50 [2]: 66.9 µM
cytotoxicity at 2 h, up to 25 µM [16]: < 20%
fold change (FC) [17]: 2.7
cytotoxicity at 2 h, up to 25 µM [18]: < 20%
cytotoxicity at 2 h, up to 25 µM [19]: < 20%
inhibition at 10 µM [20]: > 87%
Activity [3]: 10 µM
Activity [22]: inactive
cytotoxicity at 2 h, up to 25 µM [23]: < 20%
IC50 [4]: > 100 µM
inhibition (INH) [26]: Dose-dependent effect
Activity [27]: inactive
Activity [28]: Active
Activity [5]: 10 µM
cytotoxicity at up to 25 µM [29]: < 20%
